{"source": "paper PMC3045100", "about": "“Cell-Penetrating Penta-Peptides (CPP5s): Measurement of Cell Entry and Protein-Transduction Activity” (Pharmaceuticals, 2010)", "key": {"Bax": {"biological_target": "T1, Bax (Homo sapiens, UniProt Q07812)", "T1 construct": "expressed in transfected cells; host or cells: HeLa cells", "T1 sequence (Q07812 whole entry, species assumed)": "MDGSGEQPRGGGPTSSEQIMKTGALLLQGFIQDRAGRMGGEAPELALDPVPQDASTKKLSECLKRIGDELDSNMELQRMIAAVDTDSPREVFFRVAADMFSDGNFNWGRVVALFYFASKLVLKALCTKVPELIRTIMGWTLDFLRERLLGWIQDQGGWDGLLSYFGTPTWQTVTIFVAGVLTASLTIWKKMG", "assay": "Inhibition of Bax-induced apoptosis after pEGFP-Bax transfection", "type": "cell-based", "settings": "200 μM peptide 3 h before pEGFP-Bax plasmid transfection, apoptosis assayed 24 h after transfection, triplicate samples, P < 0.01", "description": "(§1) Figure 3 Protection of cells from apoptosis by VPTLK. a-d. Proteoglycan is not required for VPTLK cell entry. Microscopic analysis of cell entry of Fam-VPTLK in Chinese Hamster Ovary (CHO) A745 cells lacking proteoglycans in the plasma membrane (a) and CHO K1 cells that express proteoglycans (b). CHO A745 and K1 cells were incubated with Fam-VPTLK (200 μM) for 3 h at 37 °C. […] Apoptosis was determined by using Hoechst dye nuclear staining. Each bar represents the mean of triplicate samples and standard error, and statistical significance was determined by an unpaired student t test; “ns”: not significant, *P < 0.05, and **P < 0.01. e. […] Jurkat cells were pre-incubated with VPTLK 200 μM for 3 h prior to STS treatment (100 nM, 3 or 6 h). Apoptosis was determined by Hoechst dye nuclear staining. Each bar represents the mean of triplicate samples and standard error, and statistical significance was determined by an unpaired student t test: **P < 0.01. f. […] Apoptosis was determined by Hoechst dye nuclear staining. […]\n(§2) To induce Bax-mediated apoptosis in HeLa cells, cells were transfected with pEGFP-Bax (1 µg) and apoptosis was determined 24 h after the transfection. […] To detect apoptosis, cells were stained with Hoechst 33258 dye, and the numbers of cells with apoptotic nuclei were counted using fluorescence microscopy. Three-hundred cells were analyzed in triplicate samples. […]"}, "HeLa cells": {"test_system": "HeLa cells", "assay": "Protection from etoposide-induced apoptosis (Hoechst nuclear staining)", "type": "cell-based", "settings": "200 μM peptide 3 h pretreatment, etoposide 10 μM, 24 h, Hoechst dye nuclear staining, triplicate samples, P < 0.01", "description": "as §1, §2"}, "CHO A745 cells": {"test_system": "CHO A745 cells", "assay": "Protection from staurosporine-induced apoptosis (Hoechst nuclear staining)", "type": "cell-based, Chinese hamster", "settings": "VPTLK 3 h pre-incubation, 100 nM STS for 3 and 6 h, Hoechst dye nuclear staining, triplicate samples", "description": "as §1, §2"}, "CHO K1 cells": {"test_system": "CHO K1 cells", "assay": "Protection from staurosporine-induced apoptosis (Hoechst nuclear staining)", "type": "cell-based, Chinese hamster", "settings": "VPTLK 3 h pre-incubation, 100 nM STS for 3 and 6 h, Hoechst dye nuclear staining, triplicate samples", "description": "as §1, §2"}, "[1]": {"test_system": "Primary cultured mouse embryonic fibroblast (MEF) cells", "assay": "Cytotoxicity (apoptosis, Hoechst nuclear staining) of CPP5 and TAT", "type": "cell-based", "description": "List of cell-penetrating penta-peptides (CPP5s). […] Peptide sequences are color-coded to show the constant amphipathic amino acid arrangement in each CPP5. […] Fam was labeled on the N-terminus of all peptides examined. Cells were analyzed by FACS and/or microscopy. The activity of each peptide is shown as a percentage of the activity of KLPVM. Each value represents the mean of triplicate samples. Cell entry of some peptides was confirmed by microscopy only, and these peptides are indicated with a '+' without a percentage value. For cytoprotective activity (right column), the information is based on previous studies and the activity was determined by the protection of cells from Bax overexpression and other apoptotic stimuli such as etoposide treatment. b to e. Cell entry of Fam-labeled […], and poly-arginine (R8). […] Comparison of the cytotoxicity of CPP5 and TAT. Primary cultured mouse embryonic fibroblast (MEF) cells were treated with various concentrations of peptides for 24 h as indicated. Then, apoptosis was analyzed as described in Experimental Procedures. Each bar represents the mean of triplicate samples and standard error."}, "Jurkat cells": {"test_system": "Jurkat cells", "assay": "Protection from staurosporine-induced apoptosis (Hoechst nuclear staining)", "type": "cell-based", "settings": "200 μM peptide 3 h pre-incubation, STS 100 nM, 3 or 6 h, Hoechst dye nuclear staining, triplicate samples, P < 0.01", "description": "as §1, §2"}}}
{"substance": "VPTLK", "values": [{"measurement": "Inhibition of Bax-induced apoptosis, HeLa", "setting": "Bax", "value": "inhibited Bax-induced apoptosis in HeLa cells"}, {"measurement": "Protection from etoposide-induced apoptosis, HeLa", "setting": "HeLa cells", "value": "protected HeLa cells from etoposide-induced apoptosis"}, {"measurement": "Protection from staurosporine treatment, CHO A745", "setting": "CHO A745 cells", "value": "protected both cell lines"}, {"measurement": "Protection from staurosporine treatment, CHO K1", "setting": "CHO K1 cells", "value": "protected both cell lines"}, {"measurement": "Cytotoxic effect at 1.6 mM in the cell culture medium", "setting": "[1]", "value": "did not show significant cytotoxic effects"}, {"measurement": "Protection from STS-induced apoptosis, Jurkat", "setting": "Jurkat cells", "value": "protected Jurkat cells from STS-induced apoptosis"}]}
